Entries after “also recorded” stand apart in the source; their conditions may differ. Each block holds one compound with its values, some of them ahead of it.
What was measured:
[1] = test system: BRD4BD1 and BRD4BD2; conditions: Filippakopoulos, Qi et al. 2010; cited from earlier work
[2] = test system: BRD2BD1, BRD2BD2, BRD3BD1, BRD3BD2, BRD4BD1, BRD4BD2; experiment: EGFP/mCherry reporter cellular degradation across individual BET bromodomains; format: cell-based, human; conditions: for selectivity of BRD4 degradation over BRD2 and BRD3: EGFP/mCherry reporter assay; for degradation activity across BET bromodomains: individual bromodomains of BRD2, BRD3, BRD4
Experimental: (§1) Stable cell lines expressing eGFP-protein fusion and mCherry reporter were generated using Flip-In 293 system. Plasmid (0.3 μg) and pOG44 (4.7 μg) DNA were preincubated in 100 μL of Opti-MEM I (Gibco, Life Technologies) media containing 0.05 mg/ml Lipofectamine 2000 (Invitrogen) for 20 min and added to Flip-In 293 cells containing 1.9 ml of DMEM media (Gibco, Life Technologies) per well in a 6-well plate format (Falcon, 353046). Cells were propagated after 48 h and transferred into a 10 cm^2 plate (Corning, 430165) in DMEM media containing 50 μg/ml of Hygromycin B (REF 10687010, Invitrogen) as a selection marker. Following 2-3 passage cycle FACS (FACSAria II, BD) was used to enrich for cells expressing eGFP and mCherry.
(§2) Cells were seeded at 30-50% confluency in either 24, 48 or 96 well plates (3524, 3548, 3596 respectively, Costar) a day before compound treatment. Titrated compounds were incubated with cells for 5 h following trypsinisation and resuspention in DMEM media, transferred into 96-well plates (353910, Falcon) and analyzed by flow cytometer (guava easyCyte HT, Millipore). Signal from 5000 cells per well was acquired in singlicate or duplicate and the eGFP and mCherry florescence monitored. Data was analyzed using FlowJo (FlowJo, LCC). […] The eGFP protein abundance relative to mCherry was then quantified as a ten-fold amplified ratio for each individual cell using the formula: 10×eGFP/mCherry. The median of the ratio was then calculated per set, normalized to the median of the DMSO ratio, and is denoted as relative abundance. Standard deviation is calculated from four replicates (n=4) unless described otherwise.

[3] = target: T1, IKZF1Δ-CRBN (Homo sapiens, UniProt Q13422+Q96SW2, DEL197-239); experiment: TR-FRET CRBN-IKZF1Δ binding assay
T1 construct: made in house; host or cells: Trichoplusia ni High-Five insect cells (baculovirus)
Experimental: Before TR-FRET measurements were conducted, the reactions were incubated for 15 min at RT. After excitation of terbium fluorescence at 337 nm, emission at 490 nm (terbium) and 520 nm (BODIPY) were recorded with a 70 μs delay over 600 μs to reduce background fluorescence and the reaction was followed over 30 200 second cycles of each data point using a PHERAstar FS microplate reader (BMG Labtech). The TR-FRET signal of each data point was extracted by calculating the 520/490 nm ratio. The heterobifunctional nature of small molecule degraders results in a three-body binding equilibrium complicated by potential cooperativity or avidity effects arising from protein-protein interactions (Douglass, Miller et al. 2013), all of which precludes direct interpretation of the binding data. […] The peak height of TR-FRET dBET dose response data was calculated in GraphPad Prism 7 using Area Under Curve analysis for three independent replicates (n=3) and the mean peak height and standard deviation calculated.
The standard deviation in IKZF1A TR-FRET compound titrations was calculated from three biological replicates (n=3) as an average of 5 technical replicates per well per experiment, or as an average of 5 technical replicates of single experiment for unlabelled protein titrations.

[4] = target: T2, BRD3 (Homo sapiens, UniProt Q15059); experiment: Western blot of BRD3 in HEK293T cells; format: cell-based; conditions: immunoblot
T2 construct: endogenous in cells; host or cells: HEK293T
Experimental: (§3) HEK293T cells were seeded at 90% confluency in 12 well plates (353043, Falcon), left to attach for 1.5 h, followed by the compound treatment for 5 h. Primary and secondary antibodies used included anti-BRD4 at 1:1000 dilution (A301-985A-M, Bethyl Laboratories), anti-BRD2 at 1:2,000 dilution (A302-582A, Bethyl Laboratories), anti-BRD3 at 1:500 dilution (ab56342, Abcam), anti-GAPDH at 1:10,000 dilution (G8795, Sigma), IRDye680 Donkey anti-mouse at 1:10,000 dilution (926-68072, LiCor) and IRDye800 Goat anti-rabbit at 1:10,000 dilution (926-32211, LiCor).

[5] = test system: DDB1ΔB-CRBN / BRD4BD1; experiment: TR-FRET dimerization assay, CRBN with BRD4BD1 wild type and mutants (peak height); format: binding, human; conditions: BRD4BD1 Q84 mutated to R (as in BRD2) or K, reference to WT
Experimental: Before TR-FRET measurements were conducted, the reactions were incubated for 15 min at RT. […] The TR-FRET signal of each data point was extracted by calculating the 520/490 nm ratio. […] The peak height of TR-FRET dBET dose response data was calculated in GraphPad Prism 7 using Area Under Curve analysis for three independent replicates (n=3) and the mean peak height and standard deviation calculated.

[6] = target: T3, BRD4BD1 (Homo sapiens, UniProt O60885); experiment: BRD4BD1-EGFP/mCherry reporter cellular degradation assay (flow cytometry); format: cell-based; conditions: BRD4BD1-EGFP reporter cells
T3 construct: expressed in transfected cells
Experimental: as §1, with “Following 2-3 passage cycle FACS (FACSAria II, BD) was used to enrich for cells expressing eGFP and mCherry.” left out
as §2, with “The median of the ratio was then calculated per set, normalized to the median of the DMSO ratio, and is denoted as relative abundance.” left out

[7] = test system: BRD3; experiment: BRD3 bromodomain EGFP/mCherry reporter cellular degradation assay; format: cell-based, human; conditions: BRD3 bromodomain reporter cells
Experimental: as §1, with “Following 2-3 passage cycle FACS (FACSAria II, BD) was used to enrich for cells expressing eGFP and mCherry.” left out
as §2, with “The median of the ratio was then calculated per set, normalized to the median of the DMSO ratio, and is denoted as relative abundance.” left out

[8] = test system: BRD2; experiment: BRD2 bromodomain EGFP/mCherry reporter cellular degradation assay; format: cell-based, human; conditions: BRD2 bromodomain reporter cells
Experimental: as §1, with “Following 2-3 passage cycle FACS (FACSAria II, BD) was used to enrich for cells expressing eGFP and mCherry.” left out
as §2, with “The median of the ratio was then calculated per set, normalized to the median of the DMSO ratio, and is denoted as relative abundance.” left out

[9] = target: T4, BRD4 (Homo sapiens, UniProt O60885); experiment: Western blot of endogenous BRD4 in HEK293T cells; format: cell-based; conditions: 5 hours, immunoblot
T4 construct: retains activity on endogenous full length BRD4; endogenous in cells; host or cells: HEK293T
Experimental: as §3

[10] = target: T5, BRD2 (Homo sapiens, UniProt P25440); experiment: Western blot of BRD2 in HEK293T cells; format: cell-based; conditions: immunoblot
T5 construct: endogenous in cells; host or cells: HEK293T
Experimental: as §3

[11] = test system: IKZF1, IKZF3 and ZFP91; experiment: Quantitative proteomics (TMT LC-MS3) in MM.1s cells; format: cell-based, human; conditions: 1 μM, five hours
Experimental: A micro-BCA assay (Pierce) was used to determine the final protein concentration in the cell lysate. […] Proteins were precipitated using methanol/chloroform. In brief, four volumes of methanol were added to the cell lysate, followed by one volume of chloroform, and finally three volumes of water.

[12] = target: T6, IKZF1Δ (Homo sapiens, UniProt Q13422+Q96SW2, DEL197-239); experiment: IKZF1Δ-EGFP fusion protein cellular degradation assay; format: cell-based; conditions: HEK293T cells
T6 construct: expressed in transfected cells
Experimental: as §1, with “Following 2-3 passage cycle FACS (FACSAria II, BD) was used to enrich for cells expressing eGFP and mCherry.” left out
as §2, with “The median of the ratio was then calculated per set, normalized to the median of the DMSO ratio, and is denoted as relative abundance.” left out

T1 sequence (Q96SW2 whole entry, stated change not applied): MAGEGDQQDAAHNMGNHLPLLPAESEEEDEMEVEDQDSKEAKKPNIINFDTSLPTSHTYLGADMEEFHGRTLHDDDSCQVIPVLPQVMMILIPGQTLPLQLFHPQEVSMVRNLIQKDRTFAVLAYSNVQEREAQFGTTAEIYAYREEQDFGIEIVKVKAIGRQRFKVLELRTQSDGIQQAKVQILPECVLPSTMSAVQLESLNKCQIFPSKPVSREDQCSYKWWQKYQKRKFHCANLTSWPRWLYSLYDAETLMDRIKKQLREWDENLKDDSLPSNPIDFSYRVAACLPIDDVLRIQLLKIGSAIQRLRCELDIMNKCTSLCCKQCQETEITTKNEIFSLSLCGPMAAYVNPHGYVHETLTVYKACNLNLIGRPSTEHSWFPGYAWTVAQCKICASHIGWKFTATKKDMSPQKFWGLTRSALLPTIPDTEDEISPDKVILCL
T1 sequence (Q13422 with tags, fused parts or gaps DEL197-239): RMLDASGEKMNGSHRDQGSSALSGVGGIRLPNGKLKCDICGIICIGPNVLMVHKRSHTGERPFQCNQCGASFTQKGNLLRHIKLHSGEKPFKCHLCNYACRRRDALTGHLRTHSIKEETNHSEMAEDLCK
T2 sequence (Q15059 whole entry): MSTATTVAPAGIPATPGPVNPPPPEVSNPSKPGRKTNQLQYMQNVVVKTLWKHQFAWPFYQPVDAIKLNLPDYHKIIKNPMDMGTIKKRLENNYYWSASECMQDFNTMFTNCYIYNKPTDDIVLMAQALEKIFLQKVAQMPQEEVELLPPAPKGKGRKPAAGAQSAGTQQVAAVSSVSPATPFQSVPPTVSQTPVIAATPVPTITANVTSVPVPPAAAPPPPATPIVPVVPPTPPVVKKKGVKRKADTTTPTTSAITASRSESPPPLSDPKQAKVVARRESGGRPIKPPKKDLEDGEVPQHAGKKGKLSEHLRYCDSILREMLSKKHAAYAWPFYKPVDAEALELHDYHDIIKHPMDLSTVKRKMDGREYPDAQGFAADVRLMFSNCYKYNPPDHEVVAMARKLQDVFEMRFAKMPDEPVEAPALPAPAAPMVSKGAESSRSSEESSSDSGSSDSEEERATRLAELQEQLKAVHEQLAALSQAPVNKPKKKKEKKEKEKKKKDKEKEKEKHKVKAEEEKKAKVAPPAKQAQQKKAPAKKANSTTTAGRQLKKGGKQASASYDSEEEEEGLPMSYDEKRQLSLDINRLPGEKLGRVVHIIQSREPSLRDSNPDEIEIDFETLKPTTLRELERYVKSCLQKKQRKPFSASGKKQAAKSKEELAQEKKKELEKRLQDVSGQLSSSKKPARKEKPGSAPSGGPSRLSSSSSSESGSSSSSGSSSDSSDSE
T5 sequence (P25440 whole entry): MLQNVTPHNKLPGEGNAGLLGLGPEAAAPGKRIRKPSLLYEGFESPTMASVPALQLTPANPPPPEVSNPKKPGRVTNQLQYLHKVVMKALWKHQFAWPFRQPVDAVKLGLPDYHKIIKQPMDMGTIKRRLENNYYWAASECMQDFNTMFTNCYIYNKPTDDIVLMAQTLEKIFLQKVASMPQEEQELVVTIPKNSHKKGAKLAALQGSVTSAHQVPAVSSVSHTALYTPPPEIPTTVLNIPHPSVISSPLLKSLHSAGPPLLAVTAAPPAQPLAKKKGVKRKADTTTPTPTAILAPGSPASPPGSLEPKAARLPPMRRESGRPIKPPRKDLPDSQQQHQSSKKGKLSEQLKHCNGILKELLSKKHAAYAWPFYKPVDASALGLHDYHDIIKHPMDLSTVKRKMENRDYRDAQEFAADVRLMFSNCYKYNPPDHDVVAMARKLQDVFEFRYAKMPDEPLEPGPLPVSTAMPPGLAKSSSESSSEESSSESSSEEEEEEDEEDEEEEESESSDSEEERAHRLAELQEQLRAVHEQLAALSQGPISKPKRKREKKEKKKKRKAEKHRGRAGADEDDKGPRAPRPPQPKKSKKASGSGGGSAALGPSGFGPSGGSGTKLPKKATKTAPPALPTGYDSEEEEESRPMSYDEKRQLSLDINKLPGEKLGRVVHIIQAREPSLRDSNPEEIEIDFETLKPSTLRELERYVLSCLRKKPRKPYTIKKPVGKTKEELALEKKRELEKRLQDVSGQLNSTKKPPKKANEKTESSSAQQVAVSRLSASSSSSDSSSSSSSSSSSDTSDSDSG
T6 sequence (Q13422 with tags, fused parts or gaps DEL197-239): as the sequence (Q13422 with tags, fused parts or gaps DEL197-239) above
T6 sequence (Q96SW2 whole entry, stated change not applied, the tested form may be a part): as the sequence (Q96SW2 whole entry, stated change not applied) above
T6 sequence (Q16531 whole entry partner, the tested form may be a part): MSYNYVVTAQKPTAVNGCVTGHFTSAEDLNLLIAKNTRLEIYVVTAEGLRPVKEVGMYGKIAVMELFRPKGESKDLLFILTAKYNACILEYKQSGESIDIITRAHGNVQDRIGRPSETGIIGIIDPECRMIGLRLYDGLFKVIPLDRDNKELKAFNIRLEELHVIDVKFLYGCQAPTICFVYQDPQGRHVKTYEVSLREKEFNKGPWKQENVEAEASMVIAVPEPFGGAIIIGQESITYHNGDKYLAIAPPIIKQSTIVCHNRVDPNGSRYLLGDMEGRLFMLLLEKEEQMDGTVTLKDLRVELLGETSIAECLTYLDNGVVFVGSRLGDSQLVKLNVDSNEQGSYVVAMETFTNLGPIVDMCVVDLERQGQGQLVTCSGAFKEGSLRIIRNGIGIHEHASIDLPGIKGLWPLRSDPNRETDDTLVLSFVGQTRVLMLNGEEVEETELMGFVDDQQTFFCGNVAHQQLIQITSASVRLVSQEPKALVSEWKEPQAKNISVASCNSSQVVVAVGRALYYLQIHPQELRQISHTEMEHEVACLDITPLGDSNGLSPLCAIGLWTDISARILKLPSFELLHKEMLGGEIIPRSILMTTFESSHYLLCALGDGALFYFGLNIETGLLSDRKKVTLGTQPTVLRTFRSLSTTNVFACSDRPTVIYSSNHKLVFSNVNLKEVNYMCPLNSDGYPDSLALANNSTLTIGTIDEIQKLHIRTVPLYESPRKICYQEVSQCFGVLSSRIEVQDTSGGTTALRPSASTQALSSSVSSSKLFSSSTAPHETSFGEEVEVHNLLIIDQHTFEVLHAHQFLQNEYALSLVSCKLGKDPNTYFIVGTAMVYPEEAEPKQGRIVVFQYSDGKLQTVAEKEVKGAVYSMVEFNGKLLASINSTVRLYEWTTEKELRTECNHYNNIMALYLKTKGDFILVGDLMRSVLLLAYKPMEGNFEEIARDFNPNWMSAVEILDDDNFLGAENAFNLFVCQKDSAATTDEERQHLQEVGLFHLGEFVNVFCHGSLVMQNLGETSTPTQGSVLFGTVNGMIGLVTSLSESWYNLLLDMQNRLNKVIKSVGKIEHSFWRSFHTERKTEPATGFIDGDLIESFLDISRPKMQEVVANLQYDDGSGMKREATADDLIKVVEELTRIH

SMILES: Cc1sc2c(c1C)C(c1ccc(Cl)cc1)=N[C@@H](CC(=O)OC(C)(C)C)c1nnc(C)n1-2 [JQ1]
relative affinity for BRD4BD1 and BRD4BD2 [1]: equal affinities

SMILES: COC(=O)C[C@@H]1N=C(c2ccc(Cl)cc2)c2c(sc(C(=O)NCCCCNc3cccc4c3C(=O)N(C3CCC(=O)NC3=O)C4=O)c2C)-n2c(C)nnc21 (stereo partly shown) [ZXH-2-184]
selectivity of BRD4 degradation over BRD2 and BRD3 [2]: selective degradation of BRD4; also recorded: selectively targets BRD4 for degradation and spares BRD2 and BRD3

SMILES: COC(=O)C[C@@H]1N=C(c2ccc(Cl)cc2)c2c(sc(C(=O)NCCCCCCCCOc3ccc4c(c3)C(=O)N(C3CCC(=O)NC3=O)C4=O)c2C)-n2c(C)nnc21 (stereo partly shown) [ZXH-2-45]
IKZF1-CRBN complex formation induced by compound [3]: greatly reduced compared to their nitrogen analogs

degradation of BRD3 [4]: inactive
degradation activity on BRD4BD1 [6]: active on BRD4BD1
DC50 ([6]; 5 h, read-out: DC50/5h (half-maximal degradation after 5 hours of treatment)): ~5 nM
degradation of BRD2 [10]: inactive
SMILES: COC(=O)C[C@@H]1N=C(c2ccc(Cl)cc2)c2c(sc(C(=O)NCCCCCNc3cccc4c3C(=O)N(C3CCC(=O)NC3=O)C4=O)c2C)-n2c(C)nnc21 (stereo partly shown) [ZXH-03-26]
complex formation with CRBN (TR-FRET peak height) [5]: decreases complex formation with CRBN
concentrations at which degradation of BRD3 is spared [7]: > 10 µM
selectivity of BRD4 degradation over BRD2 and BRD3 [2]: selectively targets BRD4 for degradation and spares BRD2 and BRD3
degradation activity across BET bromodomains [2]: activity exclusively on the first bromodomain of BRD4
concentrations at which degradation of BRD2 is spared [8]: > 10 µM
degradation of endogenous BRD4 [9]: degrades endogenous BRD4 with comparable efficacy compared to the best pan-BET degrader dBET6

SMILES: COC(=O)C[C@@H]1N=C(c2ccc(Cl)cc2)c2c(sc(C(=O)NCCCCCCCCNC(=O)COc3cccc4c3C(=O)N(C3CCC(=O)NC3=O)C4=O)c2C)-n2c(C)nnc21 (stereo partly shown) [dBET23]
co-degradation of CRBN-lenalidomide neo-substrates IKZF1, IKZF3 and ZFP91 [11]: not dBET23 exhibits pronounced co-degradation

SMILES: Cc1sc2c(c1C)C(c1ccc(Cl)cc1)=N[C@@H](CC(=O)NCCOc1cccc3c1C(=O)N(C1CCC(=O)NC1=O)C3=O)c1nnc(C)n1-2 (stereo partly shown) [ZXH-2-42]
IKZF1-CRBN complex formation induced by compound [3]: greatly reduced compared to their nitrogen analogs

SMILES: COC(=O)C[C@@H]1N=C(c2ccc(Cl)cc2)c2c(sc(C(=O)NCCCCCCCCOc3cccc4c3C(=O)N(C3CCC(=O)NC3=O)C4=O)c2C)-n2c(C)nnc21 (stereo partly shown) [ZXH-2-43]
IKZF1-CRBN complex formation induced by compound [3]: greatly reduced compared to their nitrogen analogs

SMILES: Cc1ncsc1-c1ccc(CNC(=O)[C@@H]2C[C@@H](O)CN2C(=O)[C@@H](NC(=O)COCCOCCOCCNC(=O)C[C@@H]2N=C(c3ccc(Cl)cc3)c3c(sc(C)c3C)-n3c(C)nnc32)C(C)(C)C)cc1 [MZ1, reference compound]
degradation activity across BET bromodomains [2]: activity on most bromodomains

SMILES: Cc1sc2c(c1C)C(c1ccc(Cl)cc1)=N[C@@H](CC(=O)NCCCCCCCCNC(=O)COc1cccc3c1C(=O)N(C1CCC(=O)NC1=O)C3=O)c1nnc(C)n1-2 (stereo partly shown) [dBET6, reference compound]
IKZF1-CRBN complex formation induced by compound [3]: do not induce IKZF1-CRBN complex formation
cellular IKZF1 degradation [12]: relatively ineffective at promoting IKZF1 degradation

Source: US20200190136A1, “METHODS FOR GENERATING SMALL MOLECULE DEGRADERS AND DIMERIZERS” (DANA-FARBER CANCER INSTITUTE, INC., priority 2017, published 2020)
